The nature of series [1]: Cytotoxicity against human THP-1 assessed as reduction in cell viability measured after 72 hrs by CCK-8 assay. Format: toxicity, cell-based. The note with it: THP-1 cells. On the technique in general: Tetrazolium assays rely on reduction of a dye to a coloured formazan, in cell work by metabolically active cells.
Series [2] concerns the target NACHT, LRR and PYD domains-containing protein 3 (Mus musculus) (UniProt Q8R4B8). Description: Binding affinity to NLRP3 in mouse RAW264.7 cells assessed as thermal stabilization at 100 uM at 52 to 56 degreeC incubated for 6 hrs by cellular thermal shift assay. Format: cell-based.
The nature of series [3]: Fluorescence property of the compound in DMSO assessed as maximum absorption wavelength. In kind it is physicochemical.
Series [4] is described as follows: Fluorescence property of the compound in DMSO assessed as maximum emission wavelength. Format: physicochemical.
Series [5] is described as follows: Fluorescence property of the compound in DMSO assessed as molar extinction coefficient. Format: physicochemical.
A short description of series [6]: Fluorescence property of the compound in DMSO assessed as quantum yield. Format: physicochemical.
For series [7], the target named is NACHT, LRR and PYD domains-containing protein 3 (Homo sapiens, UniProt Q96P20). Briefly: Inhibition of NLRP3 inflammasome activation in PMA differentiated LPS-primed human THP-1 cells assessed as reduction in nigericin-induced IL-1beta level pretreated for 2 hrs followed by nigericin addition and measured after 30 mins by ELISA. Format: cell-based.
A short description of series [8]: Drug distribution in cytoplasm of mouse RAW264.7 cells expressing NLRP3 assessed as increase in green fluorescence at 10 uM incubated for 0.5 hrs by Hoechst 33342 staining based confocal microscopic analysis. In kind it is ADME, subcellular. The note with it: raw264.7, 0.5 h.
Series [9] deals with NACHT, LRR and PYD domains-containing protein 3 (Mus musculus) (UniProt Q8R4B8). Description: Binding affinity to NLRP3 in mouse RAW264.7 cells assessed as increase in mean fluorescence intensity at 10 uM incubated for 30 mins by beckman coulter based flow cytometry analysis. Format: cell-based. (A flow cytometer gives signals particle by particle.)
Series [10] has the same target. Description: Binding affinity to NLRP3 in mouse RAW264.7 cells assessed as increase in mean fluorescence intensity at 10 uM preincubated with LPS for 3 hrs followed by compound addition and measured after 30 mins by beckman coulter based flow cytometry analysis. In kind it is cell-based.

The structures appear in SMILES notation. Active and inactive are the calls of the source. The calls are words filed in the database; no cut-off is given here.

Chain of NACHT, LRR and PYD domains-containing protein 3 (Mus musculus) (Q8R4B8 whole entry, the tested form may be a part): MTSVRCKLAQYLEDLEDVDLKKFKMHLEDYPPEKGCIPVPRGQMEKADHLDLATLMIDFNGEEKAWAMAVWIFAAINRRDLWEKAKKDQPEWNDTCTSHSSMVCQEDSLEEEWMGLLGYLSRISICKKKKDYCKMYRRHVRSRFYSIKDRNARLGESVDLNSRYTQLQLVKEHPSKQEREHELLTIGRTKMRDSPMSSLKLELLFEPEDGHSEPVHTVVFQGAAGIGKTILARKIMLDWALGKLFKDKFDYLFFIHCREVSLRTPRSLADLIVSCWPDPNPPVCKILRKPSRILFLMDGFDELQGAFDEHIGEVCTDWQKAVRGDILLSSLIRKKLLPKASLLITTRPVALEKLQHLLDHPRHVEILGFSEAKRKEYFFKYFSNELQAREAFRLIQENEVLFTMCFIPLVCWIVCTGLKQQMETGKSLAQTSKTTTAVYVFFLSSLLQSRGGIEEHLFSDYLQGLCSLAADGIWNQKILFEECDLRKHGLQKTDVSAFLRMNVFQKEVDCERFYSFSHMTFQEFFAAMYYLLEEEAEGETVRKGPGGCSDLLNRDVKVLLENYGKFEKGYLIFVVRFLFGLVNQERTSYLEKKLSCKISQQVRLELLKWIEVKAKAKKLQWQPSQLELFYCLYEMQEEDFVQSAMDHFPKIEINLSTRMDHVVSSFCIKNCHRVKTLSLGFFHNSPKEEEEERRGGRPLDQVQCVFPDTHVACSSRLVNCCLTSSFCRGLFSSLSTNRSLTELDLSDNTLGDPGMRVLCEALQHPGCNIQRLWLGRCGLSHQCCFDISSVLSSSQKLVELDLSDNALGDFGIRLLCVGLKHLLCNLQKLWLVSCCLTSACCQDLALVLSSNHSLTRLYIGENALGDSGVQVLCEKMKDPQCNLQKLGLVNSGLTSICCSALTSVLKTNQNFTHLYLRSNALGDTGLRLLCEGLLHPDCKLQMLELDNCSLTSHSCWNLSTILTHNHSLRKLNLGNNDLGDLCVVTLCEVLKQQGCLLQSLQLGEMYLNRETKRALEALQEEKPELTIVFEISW
Chain of NACHT, LRR and PYD domains-containing protein 3 (Q96P20 whole entry, the tested form may be a part): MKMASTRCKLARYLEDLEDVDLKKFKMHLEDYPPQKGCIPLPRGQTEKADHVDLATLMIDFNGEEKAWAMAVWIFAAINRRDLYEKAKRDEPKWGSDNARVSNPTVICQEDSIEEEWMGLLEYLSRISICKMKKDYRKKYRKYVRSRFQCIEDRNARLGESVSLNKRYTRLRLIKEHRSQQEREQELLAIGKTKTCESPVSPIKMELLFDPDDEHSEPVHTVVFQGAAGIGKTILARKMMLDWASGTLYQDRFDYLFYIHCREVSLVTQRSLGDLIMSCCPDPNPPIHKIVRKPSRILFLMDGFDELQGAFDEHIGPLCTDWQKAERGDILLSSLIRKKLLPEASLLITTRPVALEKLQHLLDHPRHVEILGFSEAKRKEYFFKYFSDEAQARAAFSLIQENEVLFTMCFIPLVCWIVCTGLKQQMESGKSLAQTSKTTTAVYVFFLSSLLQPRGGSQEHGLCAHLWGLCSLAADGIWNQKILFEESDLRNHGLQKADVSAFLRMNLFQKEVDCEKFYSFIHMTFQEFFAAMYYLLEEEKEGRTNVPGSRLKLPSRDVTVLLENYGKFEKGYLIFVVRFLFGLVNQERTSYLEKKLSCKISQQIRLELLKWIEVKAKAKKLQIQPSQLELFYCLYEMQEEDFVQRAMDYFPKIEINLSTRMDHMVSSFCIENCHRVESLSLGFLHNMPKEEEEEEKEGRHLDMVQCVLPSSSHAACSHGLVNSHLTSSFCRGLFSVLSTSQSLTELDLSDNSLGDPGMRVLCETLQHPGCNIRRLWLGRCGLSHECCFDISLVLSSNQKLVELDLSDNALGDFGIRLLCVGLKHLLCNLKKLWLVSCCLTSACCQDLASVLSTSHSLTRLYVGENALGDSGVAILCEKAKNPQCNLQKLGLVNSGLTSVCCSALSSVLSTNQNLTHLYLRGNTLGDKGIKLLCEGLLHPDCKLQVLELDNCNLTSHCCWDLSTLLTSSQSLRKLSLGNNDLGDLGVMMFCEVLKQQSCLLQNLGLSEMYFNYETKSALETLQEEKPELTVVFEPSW

What is called CC50 is the concentration giving 50% cytotoxicity. As for `O=C(Nc1c2c(cc3c1CCC3)CCC2)NS(=O)(=O)c1ccc(N2C[C@@H]3[C@@H](CO)[C@@H]3C2)c2nonc12`, the CC50 at 72 h in series [1] is greater than 100 µM.
Take `O=C(Nc1c2c(cc3c1CCC3)CCC2)NS(=O)(=O)c1ccc(NC2CC(F)(F)C2)c2nonc12`: the CC50 at 72 h in series [1] is greater than 100 µM.
Turning to `CN(C)c1ccc(S(=O)(=O)NC(=O)Nc2c3c(cc4c2CCC4)CCC3)c2nonc12`, in series [1], the CC50 at 72 h was greater than 100 µM. In [2], the outcome was Active. The Activity in series [3] was 448 nm; in [4] it was 586 nm; in series [5] it was 7406 M⁻¹ cm⁻¹; in series [6], 16%.
By IC50 is commonly meant the point on the concentration scale where inhibition reaches its midpoint. Turning to `CN(C)c1cccc2c(S(=O)(=O)NC(=O)Nc3c4c(cc5c3CCC5)CCC4)cccc12`, the IC50 in series [7] was 9.18 µM. Moreover, in [1], the CC50 at 72 h is greater than 100 µM.
`CN(C)[C@@H]1CCCC[C@H]1N(C)c1ccc(S(=O)(=O)NC(=O)Nc2c3c(cc4c2CCC4)CCC3)c2nonc12`: in series [1], the CC50 at 72 h is greater than 100 µM.
As for `O=C(Nc1c2c(cc3c1CCC3)CCC2)NS(=O)(=O)c1ccc(N2CC3CCC(C2)O3)c2nonc12`, the CC50 at 72 h in [1] was greater than 100 µM.
Turning to `O=C(Nc1c2c(cc3c1CCC3)CCC2)NS(=O)(=O)c1ccc(N2CCOCC2)c2nonc12`, the CC50 at 72 h in [1] was greater than 100 µM.
For `O=C(Nc1c2c(cc3c1CCC3)CCC2)NS(=O)(=O)c1ccc(N2CCN(CCO)CC2)c2nonc12`, the IC50 in series [7] was 2.38 µM. Further, the CC50 at 72 h in [1] is greater than 100 µM.
Turning to `CN(C)c1ccc(S(=O)(=O)NC(=O)Nc2c3c(cc4c2CCC4)CCC3)c2n[se]nc12`, in series [1], the CC50 at 72 h is greater than 100 µM.
As for `CC(C)(O)c1coc(S(=O)(=O)NC(=O)Nc2c3c(cc4c2CCC4)CCC3)c1`, the CC50 at 72 h in series [1] was determined as 81.4 µM.
For `O=C(Nc1c2c(cc3c1CCC3)CCC2)NS(=O)(=O)c1ccc(Cl)c2nonc12`, in series [1], the CC50 at 72 h is greater than 100 µM.
As to `CC(C)(C)OC(=O)NC1CN(c2ccc(S(=O)(=O)NC(=O)Nc3c4c(cc5c3CCC5)CCC4)c3nonc23)C1`, the CC50 at 72 h in series [1] was greater than 100 µM.
With `CN(C)c1ccc(S(=O)(=O)NC(=O)Nc2c3c(cc4c2CCC4)CCC3)c2nsnc12`, the CC50 at 72 h in [1] was greater than 100 µM. In addition, the outcome in series [2], in series [9] and in [10] was Active. Also, the Activity in series [3] is 450 nm; in series [4] it was 602 nm; in series [5], 8085 M⁻¹ cm⁻¹; in [6], 6%. The Drug uptake result in series [8] is given as “Active”.
Take `CSc1ccc(S(=O)(=O)NC(=O)Nc2c3c(cc4c2CCC4)CCC3)c2nonc12`: the CC50 at 72 h in series [1] was greater than 100 µM.

Source of the values: ChEMBL document CHEMBL5120824, “Synthesis and pharmacological validation of fluorescent diarylsulfonylurea analogues as NLRP3 inhibitors and imaging probes” (Eur J Med Chem, 2022).
